# Data as given in patent US20050100903A1, “Screening method” (priority 2001, published 2005).
# Assays:
# [1] = system: CEACAM-1 expression in HT29 cells; assay: Western Blot of CEACAM expression in HT29 colon carcinoma cells; format: cell-based, human; conditions: HT29, 10 ng/ml, 6 hours
# Method: HT29 colon carcinoma cells were incubated for 6 hours with TNF-α (10 ng/ml). The cells were examined microscopically for vitality, then lysed, their total protein isolated and separated electrophoretically. 8 μg protein was separated per lane. An anti-CEA antibody and an anti-mouse-HRP-coupled secondary antibody (Dianova, Hamburg, Germany) were used for detection. A cross-reacting anti-CEA antibody was chosen to investigate the selectivity of candidate substances for the expression of individual antigens. The selectivity of the substance effects is important since CEACAM-1 and CEACAM-7/CEA and CEACAM-6 can have antagonistic effects on apoptosis.
# The proportionality of expression of individual CEACAMs can be quantified in Western Blot after densitometric evaluation (e.g., public domain NIH software IMAGE 1.6.1). The antigens are identified in the Western Blot through assignment to relative molar mass. The molecular size of the individual CEACAMs is described in the literature. The Western Blot was normalized with β-actin (Sigma-Aldrich, Taufkirchen, Germany). This blot (FIG. 6) was subsequently evaluated densitometrically using the NIH Image Software 1.6.1.
# 200 nM wortmannin (Calbiochem-Novabiochem, Nottingham, UK) was incubated with 1×10^6 cells/well (6-well plate) for 3, 8 or 24 hours. […]
# HT29 cells = assay: Apoptosis in HT29 cells with or without γ-interferon stimulation, with antibody cross-linking; format: cell-based, human; conditions: addition over a short period (500 U/ml, 6 hours)
# Method: HT29 cells were treated for 6 hours with 500 U/ml γ-interferon. The procedure was also run without interferon stimulation. After change of medium, the cells were treated with primary antibodies as in Example 4. These were: mAb 4D1C2 (anti-CEACAM-1 at 4 μg/ml) or irrelevant mAb 7D11 (anti-β-catenin at 1 μg/ml). A test run without antibody was used as a second negative control.
# After medium change, secondary antibody (anti-mouse at 15 μg/ml) was added. After a total experiment duration of 80-96 hours, the level of apoptosis was determined using standard propidium iodide staining or the apoptosis ELISA of ROCHE Molecule Systems, strictly in accordance with the instructions of the manufacturer. All experiments were performed in triplicate and repeated 3× independently. The Wilcoxon signed ranks test was used to assess the significance of the data.
Substance,Influence on other proteins of the CEACAM family [1],Upregulation of CEACAM-1 compared to the untreated sample ([1]; densitometry of Western Blot normalized with β-actin),CEACAM-1 production in HT29 cells (HT29 cells)
TNF-α,without influencing,approximately 2 fold,–
"gamma-interferon: gamma-interferon, stimulates HT29 cells to produce CEACAM-1",–,–,stimulates
